Measurements from patent US20250034108A1, “SODIUM CHANNEL BLOCKERS” (NOVARTIS AG, priority 2023, published 2025).

biological target: human Nav1.5 (Homo sapiens (Human), UniProt Q14524); assay: Qpatch automated patch-clamp, peak Nav1.5 current inhibition, 5-Hz AF-like assay (holding potential -85 mV); format: cell-based; conditions: CHO-K1 cells stably expressing human Nav1.5, Table 6, Examples 63-90, read-out: Nav1.5 IC50 (5 Hz, AF Rate)
Text: Electrophysiology was used to measure the ionic currents in isolated living cells using automated patch-clamp recording, performed using an automated patch-clamp machine called Qpatch (Sophion Bioscience). Two different assay conditions were used to identify compounds with atrial-selective potential. The 5-Hz AF-like assay has more depolarized holding potential at −85 mV to mimic atrial resting membrane potential (RMP) and was used to identify compounds of strong rate-dependence. Active, rate-dependent compounds were then screened at 1 Hz (i.e., sinus rate) at the holding potential of −100 mV to mimic the ventricular scenario and help identify compounds with the largest potency separation or attenuation from the 5-Hz AF-like assay. Such compounds have the potential for treating AF without the QRS liability inherent to Class Ic drugs.
The sodium current conducted through a cell (via Nav1.5) or electrical signals were processed through a low-pass filter at 5 KHz, re-digitalized and acquired at 20 kHz. Series resistance was not compensated and leak subtraction was performed.
1 to 3 million Chinese Hamster Ovary cells (also known as CHO-K1) stably expressing human Nav1.5 were seeded into […] culture flasks with 25 mL medium (consisting of Gibco Dulbecco's Modified Eagle Medium as a base medium with 1% MEM non-essential amino acids, 400 μg/mL Geneticin, 5 μg/mL puromycin and 10% fetal bovine serum) 48-72 hours prior to the experiments. On the day of the experiment, cells were washed once with phosphate-buffered saline (also known as PBS; Gibco) detached with Detachin™ (Genlantis), and re-suspended in CHO—S-SFM II media (Gibco) at 200,000 cells/mL. The CHO—S-SFM II was replaced with assay solutions prior to the assays. Whole-cell currents were recorded at room temperature in the whole-cell configuration. The external aqueous assay solution (pH=7.4; Osm=307-315) contained the following (the concentration for each component is expressed in parentheses in mM): NaCl (140 mM), KCl (4 mM), CaCl2) (2 mM), MgCl2 (1 mM), 4-(2-hydroxyethyl)-1-piperazineethanesulfonic acid, also known as HEPES (10 mM), and glucose (5 mM). The internal aqueous assay solution (pH=7.2; Osm=292-295) contained the following (the concentration for each component is expressed in parentheses in mM): CsF (110 mM), CsCl (10 mM), NaCl (10 mM), HEPES (10 mM), and ethylene glycolbis(β-aminoethyl ether)-N,N,N′,N′-tetraacetic acid, also known as EGTA (10 mM).
To assess peak Nav1.5 current inhibition in an atrial fibrillation-mimicking condition (Nav1.5 IC50 (5 Hz, AF-like rate) (μM)), compounds were first prepared at 10 mM in DMSO, and cells were pre-incubated with test compounds at each concentration for 3 min. in an ascending order of 0, 0.37, 1.1, 3.3, 10 and 30 μM. An atrial action potential-like protocol consisting of a voltage ramp (+10 mV to −85 mV for a 150 ms duration and a holding potential at −85 mV) was then applied to cells at 5 Hz for 12 s until no further current change or inhibition was observed. The percent inhibition (expressed as ([Iafter compound treatment/Ibefore compound treatment]×100%) is calculated by normalizing the peak current amplitude at the last pulse of each of the 6 compound concentrations by the amplitude before exposure to the test compound. The compiled data was further normalized by vehicle control (DMSO) to account for Nav1.5 current run-down, and IC50 was calculated by Matlab (MathWorks, USA).

Sequence of human Nav1.5 (Q14524 whole entry): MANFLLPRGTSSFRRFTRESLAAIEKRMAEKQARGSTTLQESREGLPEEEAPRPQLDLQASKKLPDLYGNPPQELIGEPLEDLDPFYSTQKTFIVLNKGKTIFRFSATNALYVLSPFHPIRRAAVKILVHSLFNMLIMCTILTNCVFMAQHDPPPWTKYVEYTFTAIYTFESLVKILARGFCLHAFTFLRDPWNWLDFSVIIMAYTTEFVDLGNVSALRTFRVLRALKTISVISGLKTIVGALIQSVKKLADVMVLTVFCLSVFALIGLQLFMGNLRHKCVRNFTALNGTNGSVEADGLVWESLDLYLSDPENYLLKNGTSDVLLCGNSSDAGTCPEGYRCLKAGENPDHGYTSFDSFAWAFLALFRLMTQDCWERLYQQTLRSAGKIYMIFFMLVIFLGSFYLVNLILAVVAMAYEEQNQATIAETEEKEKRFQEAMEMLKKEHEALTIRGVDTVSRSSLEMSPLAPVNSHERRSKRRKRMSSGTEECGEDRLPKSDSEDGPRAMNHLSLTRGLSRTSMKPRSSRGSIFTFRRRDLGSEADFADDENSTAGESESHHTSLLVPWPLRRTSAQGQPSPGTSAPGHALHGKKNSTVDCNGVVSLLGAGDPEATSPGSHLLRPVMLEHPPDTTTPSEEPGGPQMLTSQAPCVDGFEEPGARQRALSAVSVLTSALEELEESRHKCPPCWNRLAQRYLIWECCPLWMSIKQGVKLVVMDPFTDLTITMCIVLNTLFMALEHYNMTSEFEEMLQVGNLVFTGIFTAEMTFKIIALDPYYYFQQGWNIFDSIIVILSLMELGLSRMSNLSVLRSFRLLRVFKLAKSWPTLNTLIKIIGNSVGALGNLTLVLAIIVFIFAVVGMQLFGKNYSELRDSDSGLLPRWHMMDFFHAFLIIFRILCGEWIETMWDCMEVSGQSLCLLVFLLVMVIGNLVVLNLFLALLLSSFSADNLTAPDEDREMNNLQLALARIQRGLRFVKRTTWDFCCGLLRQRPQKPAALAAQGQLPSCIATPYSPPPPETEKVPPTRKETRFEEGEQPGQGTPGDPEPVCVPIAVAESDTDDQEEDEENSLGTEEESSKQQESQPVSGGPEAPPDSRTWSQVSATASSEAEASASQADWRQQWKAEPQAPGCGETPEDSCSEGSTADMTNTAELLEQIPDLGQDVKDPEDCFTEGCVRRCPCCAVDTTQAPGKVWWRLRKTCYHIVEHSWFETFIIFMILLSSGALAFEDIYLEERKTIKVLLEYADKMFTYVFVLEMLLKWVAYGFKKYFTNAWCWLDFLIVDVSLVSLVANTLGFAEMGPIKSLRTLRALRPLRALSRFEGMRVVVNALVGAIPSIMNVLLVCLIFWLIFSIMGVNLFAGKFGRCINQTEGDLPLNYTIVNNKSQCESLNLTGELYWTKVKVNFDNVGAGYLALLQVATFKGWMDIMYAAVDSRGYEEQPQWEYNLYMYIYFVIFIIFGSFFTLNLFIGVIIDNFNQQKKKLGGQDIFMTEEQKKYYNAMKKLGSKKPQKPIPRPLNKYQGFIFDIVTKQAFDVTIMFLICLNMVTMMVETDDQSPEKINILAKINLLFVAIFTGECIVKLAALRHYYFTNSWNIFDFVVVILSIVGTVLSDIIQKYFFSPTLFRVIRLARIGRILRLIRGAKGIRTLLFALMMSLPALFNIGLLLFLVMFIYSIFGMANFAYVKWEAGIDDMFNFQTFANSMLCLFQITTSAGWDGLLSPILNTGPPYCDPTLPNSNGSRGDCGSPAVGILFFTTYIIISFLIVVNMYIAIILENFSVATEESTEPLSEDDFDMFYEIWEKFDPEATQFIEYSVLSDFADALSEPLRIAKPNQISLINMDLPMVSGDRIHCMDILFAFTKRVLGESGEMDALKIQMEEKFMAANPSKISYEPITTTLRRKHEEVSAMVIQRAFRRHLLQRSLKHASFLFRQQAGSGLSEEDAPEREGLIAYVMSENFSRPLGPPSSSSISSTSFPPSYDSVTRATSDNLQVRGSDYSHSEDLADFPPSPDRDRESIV

Row | Molecule | IC50
1 | Cc1ccc(F)c(Cn2nnc(-c3cccc([C@@](C)(O)CS(N)(=O)=O)n3)n2)c1Cl [Example 63] | 3.8 µM
2 | C[C@](O)(CS(N)(=O)=O)c1cccc(-c2nnn(Cc3cc(F)ccc3Br)n2)n1 [Example 64] | 13 µM
3 | C[C@](O)(CS(N)(=O)=O)c1cccc(-c2nnn(Cc3ccc(Br)cc3F)n2)n1 [Example 65] | 17 µM
4 | C[C@](O)(CS(N)(=O)=O)c1cccc(-c2nnn(Cc3cccc(Br)c3F)n2)n1 [Example 66] | 28 µM
5 | C[C@](O)(CS(N)(=O)=O)c1cccc(-c2nnn(Cc3c(F)cccc3Br)n2)n1 [Example 67] | 8.1 µM
6 | Cc1cc(C)c(C)c(Cn2nnc(-c3cccc([C@@](C)(O)CS(N)(=O)=O)n3)n2)c1 [Example 68] | 16 µM
7 | Cc1cccc(Cn2nnc(-c3cccc([C@@](C)(O)CS(N)(=O)=O)n3)n2)c1C [Example 69] | 11 µM
8 | C[C@](O)(CS(N)(=O)=O)c1cccc(-c2nnn(Cc3cccc(Cl)c3Cl)n2)n1 [Example 70] | 22 µM
9 | Cc1ccc(C(C)C)cc1Cn1nnc(-c2cccc([C@@](C)(O)CS(N)(=O)=O)n2)n1 [Example 72] | 7.3 µM
10 | C[C@](O)(CS(N)(=O)=O)c1cccc(-c2nnn(Cc3c(F)ccc(Cl)c3F)n2)n1 [Example 73] | 19 µM
11 | C[C@](O)(CS(N)(=O)=O)c1cccc(-c2nnn(Cc3cc(C(F)(F)F)ccc3Cl)n2)n1 [Example 74] | 21 µM
12 | C[C@](O)(CS(N)(=O)=O)c1cccc(-c2nnn(Cc3cccc(OC(F)(F)F)c3F)n2)n1 [Example 75] | 4.8 µM
13 | COc1ccc(F)c(Cn2nnc(-c3cccc([C@@](C)(O)CS(N)(=O)=O)n3)n2)c1 [Example 76] | 17 µM

same assay, conditions: CHO-K1 cells stably expressing human Nav1.5, holding potential -85 mV, Table 5, read-out: Nav1.5 IC50 (5 Hz, AF Rate)

Row | Molecule | IC50
14 | 3-(6-(1-(2-fluoro-5-(trifluoromethoxy)benzyl)-1H-pyrazol-3-yl)pyridin-2-yl)-3-hydroxy-2-methylbutane-2-sulfonamide [Example 54] | 4.2 µM
15 | CCC(O)(CS(N)(=O)=O)c1cccc(-c2ccn(Cc3cc(OC(F)(F)F)ccc3F)n2)n1 (racemic) [Example 35, 2-(6-(1-(2-fluoro-5-(trifluoromethoxy)benzyl)-1H-pyrazol-3-yl)pyridin-2-yl)-2-hydroxybutane-1-sulfonamide] | 4 µM
16 | NS(=O)(=O)CC(O)c1cccc(-c2nnn(Cc3cc(OC(F)(F)F)ccc3F)n2)n1 (racemic) [Example 48, 2-(6-(2-(2-fluoro-5-(trifluoromethoxy)benzyl)-2H-tetrazol-5-yl)pyridin-2-yl)-2-hydroxyethane-1-sulfonamide] | 5.5 µM
17 | CC(C)(C(O)c1cccc(-c2ccn(Cc3cc(OC(F)(F)F)ccc3F)n2)n1)S(N)(=O)=O (racemic) [Example 53, 1-(6-(1-(2-fluoro-5-(trifluoromethoxy)benzyl)-1H-pyrazol-3-yl)pyridin-2-yl)-1-hydroxy-2-methylpropane-2-sulfonamide] | 12 µM
18 | CC(O)(CS(N)(=O)=O)c1cccc(-c2nnn(Cc3cc(OC(F)(F)F)ccc3F)n2)n1 (racemic) [Rac-1 + 2, 2-(6-(2-(2-fluoro-5-(trifluoromethoxy)benzyl)-2H-tetrazol-5-yl)pyridin-2-yl)-2-hydroxypropane-1-sulfonamide] | 3.6 µM
19 | CC(O)(CS(N)(=O)=O)c1cccc(-c2nnn(Cc3c(F)ccc4c3OC(F)(F)O4)n2)n1 (racemic) [Rac-3 + 4, 2-hydroxy-2-(6-(2-((2,2,5-trifluorobenzo[d][1,3]dioxol-4-yl)methyl)-2H-tetrazol-5-yl)pyridin-2-yl)propane-1-sulfonamide] | 7 µM
20 | CC(O)(CS(N)(=O)=O)c1cccc(-c2nc(Cc3cc(OC(F)(F)F)ccc3F)no2)n1 (racemic) [Rac-57 + 58, 2-(6-(3-(2-fluoro-5-(trifluoromethoxy)benzyl)-1,2,4-oxadiazol-5-yl)pyridin-2-yl)-2-hydroxypropane-1-sulfonamide] | 3.7 µM
21 | CC(O)(CS(N)(=O)=O)c1cccc(-c2nnn(Cc3cc(F)ccc3F)n2)n1 (single isomer, unassigned) [Example 17, (R or S)-2-(6-(2-(2,5-difluorobenzyl)-2H-tetrazol-5-yl)pyridin-2-yl)-2-hydroxypropane-1-sulfonamide] | 24 µM
22 | CC(O)(CS(N)(=O)=O)c1cccc(-c2nnn(Cc3cc(F)ccc3F)n2)n1 (single isomer, unassigned) [Example 18, (R or S)-2-(6-(2-(2,5-difluorobenzyl)-2H-tetrazol-5-yl)pyridin-2-yl)-2-hydroxypropane-1-sulfonamide] | 20 µM
23 | CC(O)(CS(N)(=O)=O)c1cccc(-c2nnn(Cc3cc(OC(F)(F)F)ccc3F)n2)c1 (single isomer, unassigned) [Example 25, (R or S)-2-(3-(2-(2-fluoro-5-(trifluoromethoxy)benzyl)-2H-tetrazol-5-yl)phenyl)-2-hydroxypropane-1-sulfonamide] | 5.5 µM
24 | CC(O)(CS(N)(=O)=O)c1cccc(-c2nnn(Cc3cc(OC(F)(F)F)ccc3F)n2)c1 (single isomer, unassigned) [Example 26, (R or S)-2-(3-(2-(2-fluoro-5-(trifluoromethoxy)benzyl)-2H-tetrazol-5-yl)phenyl)-2-hydroxypropane-1-sulfonamide] | 1.8 µM
25 | CC(O)(CS(N)(=O)=O)c1cccc(-c2nnn(Cc3cc(OCC(F)(F)F)ccc3F)n2)n1 (single isomer, unassigned) [Example 29, (R or S)-2-(6-(2-(2-fluoro-5-(2,2,2-trifluoroethoxy)benzyl)-2H-tetrazol-5-yl)pyridin-2-yl)-2-hydroxypropane-1-sulfonamide] | 0.8 µM
26 | CC(O)(CS(N)(=O)=O)c1cccc(-c2nnn(Cc3cc(OCC(F)(F)F)ccc3F)n2)n1 (single isomer, unassigned) [Example 30, (R or S)-2-(6-(2-(2-fluoro-5-(2,2,2-trifluoroethoxy)benzyl)-2H-tetrazol-5-yl)pyridin-2-yl)-2-hydroxypropane-1-sulfonamide] | 1 µM
27 | CC(O)(CS(N)(=O)=O)c1nc(-c2nnn(Cc3cc(OC(F)(F)F)ccc3F)n2)ccc1Cl (single isomer, unassigned) [Example 42, (R or S)-2-(3-chloro-6-(2-(2-fluoro-5-(trifluoromethoxy)benzyl)-2H-tetrazol-5-yl)pyridin-2-yl)-2-hydroxypropane-1-sulfonamide] | 12 µM
28 | CC(O)(CS(N)(=O)=O)c1nc(-c2nnn(Cc3cc(OC(F)(F)F)ccc3F)n2)ccc1Cl (single isomer, unassigned) [Example 43, (R or S)-2-(3-chloro-6-(2-(2-fluoro-5-(trifluoromethoxy)benzyl)-2H-tetrazol-5-yl)pyridin-2-yl)-2-hydroxypropane-1-sulfonamide] | 8.2 µM
29 | CC(C(O)c1cccc(-c2nnn(Cc3cc(OC(F)(F)F)ccc3F)n2)n1)S(N)(=O)=O (single isomer, unassigned) [Example 49, (JR or 1S,2R or 2S)-1-(6-(2-(2-fluoro-5-(trifluoromethoxy)benzyl)-2H-tetrazol-5-yl)pyridin-2-yl)-1-hydroxypropane-2-sulfonamide] | 5.7 µM
30 | CC(C(O)c1cccc(-c2nnn(Cc3cc(OC(F)(F)F)ccc3F)n2)n1)S(N)(=O)=O (single isomer, unassigned) [Example 50, (JR or 1S,2R or 2S)-1-(6-(2-(2-fluoro-5-(trifluoromethoxy)benzyl)-2H-tetrazol-5-yl)pyridin-2-yl)-1-hydroxypropane-2-sulfonamide] | 6.6 µM
31 | CC(O)(CS(N)(=O)=O)c1cccc(-c2cnn(Cc3cc(OC(F)(F)F)ccc3F)n2)n1 (single isomer, unassigned) [Example 62, (R or S)-2-(6-(2-(2-fluoro-5-(trifluoromethoxy)benzyl)-2H-1,2,3-triazol-4-yl)pyridin-2-yl)-2-hydroxypropane-1-sulfonamide] | 3.4 µM
